Laboratory results: patent publication US7485416B2, “Screening methods for the identification of agents that inhibit SIRT1 Tat deacetylase activity” (The Regents of the University of California, priority 2003, dated 2009)

Columns and labels:
HIV LTR luciferase = experiment: Nuclear microinjection of synthetic Tat or AcTat with HIV LTR luciferase reporter into HeLa cells; assay type: cell-based; settings: for basal HIV promoter activity / transcriptional activity of AcTat (transactivation of the HIV promoter): TSA 400 nM or nicotinamide 5 mM, four hours (FIG. 6C)
Method: Subconfluent MEFs (70%) were grown on Cellocate coverslips (Eppendorf, Westbury, N.Y.), and nuclear microinjections were performed at room temperature with an automated injection system (Eppendorf Micromanipulator 5171 together with Eppendorf Transjector 5246). Samples were prepared as a 20 μl injection mix containing the HIV LTR luciferase reporter or 5×UAS luciferase (each 100 ng/μl), RSV-Tat (10 ng/μl) or Gal4-VP16 (50 ng/μl), CMV-CyclinT1 (100 ng/μl), CMV-SIRT1 (100 or 300 ng/μl) together with CMV-GFP (50 ng/μl) in sterile water. Six hours after microinjection, cells were examined under a Nikon Eclipse TE300 inverted fluorescent microscope to determine the number of GFP-positive cells, washed in cold phosphate buffer, and stored at −70° C. for luciferase assays (Promega). In HeLa cells, synthetic Tat or AcTat proteins (each 30 or 100 ng/μl) were co-injected with the wildtype or mutant HIV LTR luciferase reporters (each 100 ng/μl) together with CMV-GFP (50 ng/μl) and harvested four hours after injection. Cells were treated immediately after injection with 5,6-dichlorobenzimidazole riboside (DRB; 10 or 50 μM; Sigma), TSA (400 nM), or nicotinamide (5 mM). Microinjections in siRNA-treated cells were performed 48 hours after siRNA transfection.

[1] = tested on: Tat-dependent HIV transcription; experiment: Tat transactivation of HIV LTR luciferase reporter in transfected HeLa cells treated with HR73; assay type: cell-based; settings: at ~1 μM, 8 hours, dose-dependent (FIG. 7C left)
Method: (§1) In co-transfection experiments, human CMV-SIRT1 or CMV-SIRT1H363Y (600 ng) was co-transfected into HeLa cells plated in six-well plates with the HIV LTR luciferase reporter (200 ng) or the LTRΔNF-kB-luciferase reporter (200 ng) and increasing amounts of RSV-Tat (0 ng, 2 ng, 20 ng, and 200 ng) using the lipofectamine reagents (Invitrogen). In the control experiment, RSV-Tat was replaced by RSV luciferase (200 ng), and the HIV LTR luciferase construct was replaced by the HIV LTR CAT reporter. […] The RSV-luciferase construct was used as described above. […] Cells were harvested 8 hr later and processed for luciferase assays.

p53 = p53 acetylation in cells; assay type: cell-based; settings: 1 μM
RSV LTR = experiment: RSV luciferase control in transfected HeLa cells; assay type: cell-based; settings: 1 μM (FIG. 7C right)
Method: as §1

pHR'-EF-1α/GFP = experiment: HIV-based lentiviral vector expressing GFP from EF-1α promoter in Jurkat T cells (control); assay type: cell-based; settings: 1 μM, 36 hours (FIG. 7D right)
Method: (§2) The HIV molecular clone (HIV-R7/E^−/GFP) containing the GFP open reading frame in place of the nef gene and a frameshift mutation in the env gene as well as the method to generate pseudotyped viral particles with VSV-G was previously described. Jordan et al. (2003) Embo J 22: 1868-1877. The number of infective particles per ml was established by infecting 3×10^5 Jurkat cells with different amounts of viral suspension. The titer of the viral stock was measured by flow cytometry analysis of GFP expression 48 hours after infection. The pHR′-EF-1α/GFP construct is a minimal nonreplicative HIV-1 genome containing a heterologous promoter (EF-1α) driving GFP expression. Naldini et al. (1996) Science 272: 263-267. […]. Zufferey et al. (1997) Nat Biotechnol 15: 871-875. All vectors for the production of HIV-based lentiviral vectors were provided by D. Trono, University of Geneva, Switzerland. Jurkat T cells were incubated overnight with HIV-R7/E^−/GFP or pHR′-EF-1α/GFP viral particles at a theoretical multiplicity of infection (m.o.i.) of 0.5 in 24-well plates. […] Viral infection was monitored 36 hours later by flow cytometry analysis using a Calibur FACScan (Becton Dickinson).

[2] = tested on: HIV-R7/E-/GFP (HIVNL4-3 with GFP in place of nef); experiment: Single-cycle HIV infection of Jurkat T cells, GFP expression by flow cytometry; assay type: cell-based; settings: 1 μM, 36 hours (FIG. 7D left)
Method: as §2

SIRT1 = target: T1, SIRT1 (Homo sapiens, UniProt Q96EB6); experiment: In vitro Tat deacetylation assay with immunoprecipitated SIRT1; assay type: biochemical; settings: AcTat, NAD+ 1 mM; nicotinamide 5 mM, TSA 400 nM; western blot (FIG. 2B)
T1 construct: made in house; host or cells: HEK 293 cells (transient transfection, anti-FLAG M2 agarose immunoprecipitation)
T1 sequence (Q96EB6 1-747): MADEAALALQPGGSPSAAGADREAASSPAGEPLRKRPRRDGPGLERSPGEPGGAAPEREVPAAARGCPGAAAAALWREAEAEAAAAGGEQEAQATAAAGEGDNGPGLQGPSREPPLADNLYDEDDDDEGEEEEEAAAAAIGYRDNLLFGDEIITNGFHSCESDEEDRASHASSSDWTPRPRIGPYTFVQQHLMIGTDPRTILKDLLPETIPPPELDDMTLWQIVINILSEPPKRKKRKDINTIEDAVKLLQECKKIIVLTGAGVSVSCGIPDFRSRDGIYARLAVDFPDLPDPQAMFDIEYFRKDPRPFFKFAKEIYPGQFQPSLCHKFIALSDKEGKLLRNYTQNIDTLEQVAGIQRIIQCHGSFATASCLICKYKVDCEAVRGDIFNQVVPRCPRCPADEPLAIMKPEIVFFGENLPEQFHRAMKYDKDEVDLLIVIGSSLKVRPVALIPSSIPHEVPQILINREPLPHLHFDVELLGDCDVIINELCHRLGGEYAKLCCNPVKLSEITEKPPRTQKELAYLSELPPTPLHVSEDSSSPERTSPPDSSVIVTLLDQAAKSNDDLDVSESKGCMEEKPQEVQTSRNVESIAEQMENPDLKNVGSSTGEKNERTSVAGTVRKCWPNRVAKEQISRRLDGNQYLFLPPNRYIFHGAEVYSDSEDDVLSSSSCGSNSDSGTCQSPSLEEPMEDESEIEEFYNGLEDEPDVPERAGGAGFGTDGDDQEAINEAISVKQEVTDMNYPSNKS
Method: Human SIRT1-7 FLAG-tagged plasmids were transfected in 293 cells with lipofectamine reagent (Invitrogen). Cells were lysed 24 hours after transfection with lysis buffer (50 mM Tris-Hcl, pH 7.5, 0.5 mM EDTA, 0.5% NP40, 150 mM NaCl) in the presence of protease inhibitors (Roche Molecular Biochemicals, Indianapolis, Ind.). Equal amounts of total proteins were immunoprecipitated with α-FLAG (anti-FLAG antibody) coupled to M2 agarose beads (Sigma, St Louis, Mo.), for 2 hours at 4° C. Immunoprecipitated material was washed twice with immunoprecipitation (IP) buffer and one time with SIRT deacetylation buffer (50 mM Tris-HCl pH 9, 4 mM MgCl2, 0.2 mM DTT). The beads were resuspended in 100 μl SIRT deacetylation buffer containing 1 μg synthetic Tat (72 amino acids) carrying an N-terminal biotin label and an acetyl group at position 50. Kaehlcke et al. (2003), supra. Reactions containing TSA (400 nM, WACO Bioproducts, Richmond, Va.) or nicotinamide (5 mM, Sigma) were preincubated for 10 min at room temperature. […] Reactions were stopped by the addition of SDS loading buffer, boiled, and after brief centrifugation, analyzed by western blotting with rabbit α-AcTat antibodies (Kaehlcke et al. (2003), supra) or horseradish peroxidase-conjugated streptavidin (Jackson Immunoresearch Laboratories, West Grove, Pa.). SIRT1-7 proteins were detected with polyclonal α-FLAG antibodies (Sigma).

SMILES	effect on SIRT1-mediated deacetylation of Tat (SIRT1)	basal HIV promoter activity (HIV LTR luciferase)	transcriptional activity of AcTat (transactivation of the HIV promoter) (HIV LTR luciferase)	further results
OC[C@H]1O[C@@H](n2cnc3cc(Cl)c(Cl)cc32)[C@H](O)[C@@H]1O [DRB, 5,6-dichlorobenzimidazole riboside]	–	–	–	transactivation by Tat and AcTat (HIV LTR luciferase; Tat or AcTat 30 ng/μl, DRB 10 or 50 μM, four hours (FIG. 6B)): inhibited in a dose-dependent manner
O=C1Oc2ccc3cc(Br)ccc3c2CC1c1ccccc1 (stereo not drawn) [HR73]	–	–	–	suppression of Tat-dependent HIV transcription [1]: 3 fold; acetylation of p53 (p53): induced hyperacetylation; activity of the RSV LTR (RSV LTR): did not suppress; GFP expression from the EF-1α promoter (pHR'-EF-1α/GFP): not affected; reduction of HIV gene expression as measured by GFP expression [2]: 5 fold
CC(/C=C/C(=O)NO)=C\[C@@H](C)C(=O)c1ccc(N(C)C)cc1 [TSA]	had no effect	enhanced	enhanced	–
NC(=O)c1cccnc1 [nicotinamide]	completely inhibited	stimulating	blocked	–
